From patent publication US9982231B2, “Methods for reprogramming differentiated non-cardiac cells into cardiomyocytes” (The J. David Gladstone Institutes, a testamentary trust …, priority 2013, dated 2018)

Key:
[1] = biological target: PDGF receptor tyrosine kinase; settings: PDGFR kinase / PDGF receptor tyrosine kinase; cited from earlier work
[2] = system: human adult dermal fibroblasts (HADFs); assay: Conversion of human adult dermal fibroblasts into chemically induced cardiomyocytes; assay type: cell-based
Description: 9C is the reprogramming conditions; CCM. CM-conditioned medium; D, day. […] FIG. 9C graphically illustrates test protocols for ascertaining optimal treatment durations for a combination of sodium butyrate and SMER28 (NS) (n=3). The duration shown on the x-axis of the left graph is days (e.g., D0=day zero; D-14=day 14 of treatment). […] Scale bars, 100 μm.

[3] = system: contracting cardiomyocytes derived from human fibroblast cells; assay: Responses of reprogrammed cardiomyocytes to β-adrenergic and muscarinic stimulation; assay type: cell-based; settings: cardiomyocytes reprogrammed from CRL-2097
Procedure: Naïve human fibroblast CRL-2097 cells were treated with cardiac reprogramming medium for 6 days followed by treatment with cardiac induction medium 1 for 5 days and then cardiac induction medium 2 for 21-26 days.
Representative beating frequencies of the reprogrammed cells are shown in FIG. 7A before (i) or after β-adrenergic stimulation by its agonist (ii, isoproterenol), or a muscarinic agonist (iii. Carbachol; CCh).

[4] = biological target: epidermal growth factor receptor (EGFR) (Homo sapiens, UniProt P00533); settings: EGFR / EGF receptor kinase; cited from earlier work
Chain of epidermal growth factor receptor (EGFR) (P00533 25-1210, species assumed): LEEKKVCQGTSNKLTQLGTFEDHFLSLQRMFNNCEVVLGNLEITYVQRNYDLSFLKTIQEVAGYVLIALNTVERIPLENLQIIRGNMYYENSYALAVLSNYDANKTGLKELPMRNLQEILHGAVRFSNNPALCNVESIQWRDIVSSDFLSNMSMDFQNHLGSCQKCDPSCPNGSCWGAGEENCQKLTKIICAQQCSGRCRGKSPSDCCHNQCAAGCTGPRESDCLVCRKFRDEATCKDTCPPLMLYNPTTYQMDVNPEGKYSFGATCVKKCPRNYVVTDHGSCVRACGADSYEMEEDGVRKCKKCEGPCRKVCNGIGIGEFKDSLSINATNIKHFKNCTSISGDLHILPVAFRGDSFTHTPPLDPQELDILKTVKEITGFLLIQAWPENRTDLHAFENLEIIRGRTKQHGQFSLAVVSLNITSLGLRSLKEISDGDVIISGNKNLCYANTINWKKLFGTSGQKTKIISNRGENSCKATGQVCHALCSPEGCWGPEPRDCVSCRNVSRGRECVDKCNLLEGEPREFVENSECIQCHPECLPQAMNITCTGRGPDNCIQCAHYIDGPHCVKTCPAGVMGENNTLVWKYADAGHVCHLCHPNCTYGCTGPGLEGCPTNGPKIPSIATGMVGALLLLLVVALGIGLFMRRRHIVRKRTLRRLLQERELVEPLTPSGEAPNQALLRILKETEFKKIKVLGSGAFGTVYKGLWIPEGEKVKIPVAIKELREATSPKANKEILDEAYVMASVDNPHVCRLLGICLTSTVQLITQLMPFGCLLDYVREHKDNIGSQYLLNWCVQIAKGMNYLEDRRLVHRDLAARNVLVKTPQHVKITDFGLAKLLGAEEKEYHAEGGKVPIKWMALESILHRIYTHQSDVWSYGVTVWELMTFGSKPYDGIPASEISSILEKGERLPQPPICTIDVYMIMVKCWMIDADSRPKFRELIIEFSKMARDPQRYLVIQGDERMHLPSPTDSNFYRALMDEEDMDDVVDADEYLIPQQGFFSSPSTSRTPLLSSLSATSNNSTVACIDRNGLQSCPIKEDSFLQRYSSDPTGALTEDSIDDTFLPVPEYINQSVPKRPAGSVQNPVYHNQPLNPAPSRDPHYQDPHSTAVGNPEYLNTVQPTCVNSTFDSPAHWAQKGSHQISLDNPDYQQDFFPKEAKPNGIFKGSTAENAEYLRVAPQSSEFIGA

[5] = biological target: platelet-derived growth factor receptor β (PDGFRβ) (Homo sapiens, UniProt P09619); settings: cited from earlier work
Chain of platelet-derived growth factor receptor β (PDGFRβ) (P09619 33-1106): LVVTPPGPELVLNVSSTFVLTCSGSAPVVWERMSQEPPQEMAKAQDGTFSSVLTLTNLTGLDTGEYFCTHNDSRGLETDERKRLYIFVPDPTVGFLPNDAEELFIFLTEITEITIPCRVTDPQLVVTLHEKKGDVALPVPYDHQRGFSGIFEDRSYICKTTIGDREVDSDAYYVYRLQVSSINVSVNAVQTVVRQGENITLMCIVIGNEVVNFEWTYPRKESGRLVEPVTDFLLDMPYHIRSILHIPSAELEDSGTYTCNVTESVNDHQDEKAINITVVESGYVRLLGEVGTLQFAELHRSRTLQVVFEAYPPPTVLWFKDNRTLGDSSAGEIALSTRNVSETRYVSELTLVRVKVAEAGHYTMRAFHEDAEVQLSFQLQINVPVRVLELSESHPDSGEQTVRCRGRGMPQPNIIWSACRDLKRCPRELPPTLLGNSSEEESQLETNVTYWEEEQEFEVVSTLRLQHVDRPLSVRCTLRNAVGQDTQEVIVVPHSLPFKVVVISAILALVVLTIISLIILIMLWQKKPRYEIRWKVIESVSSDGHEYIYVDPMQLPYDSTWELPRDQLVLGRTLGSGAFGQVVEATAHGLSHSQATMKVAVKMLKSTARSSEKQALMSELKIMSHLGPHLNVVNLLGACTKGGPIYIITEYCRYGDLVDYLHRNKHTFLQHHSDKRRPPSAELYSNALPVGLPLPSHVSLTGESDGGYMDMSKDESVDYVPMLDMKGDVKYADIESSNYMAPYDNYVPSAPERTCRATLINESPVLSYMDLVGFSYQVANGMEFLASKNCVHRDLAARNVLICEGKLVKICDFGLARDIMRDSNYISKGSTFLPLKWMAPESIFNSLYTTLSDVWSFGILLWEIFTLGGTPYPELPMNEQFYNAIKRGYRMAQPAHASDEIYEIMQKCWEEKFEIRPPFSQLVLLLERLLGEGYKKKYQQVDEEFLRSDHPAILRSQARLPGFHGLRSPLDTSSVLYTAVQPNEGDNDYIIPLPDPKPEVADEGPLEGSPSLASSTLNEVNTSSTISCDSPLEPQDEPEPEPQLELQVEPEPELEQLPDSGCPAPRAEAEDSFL

[6] = system: human foreskin fibroblast cells; assay: Reprogramming with PBIT as a substitute for AS8351; assay type: cell-based
Procedure: FIG. 8A graphically illustrates the knockdown efficiency of the indicated shRNAs in human foreskin fibroblast cells detected by qPCR (n=2). Expression values for each gene were normalized to those measured in control shRNA group. […] Data were collected on day 30. […] Data were collected on day 30. […] FIG. 8E illustrates immunofluorescence staining of cardiomyocyte markers on contracting clusters at day 30 after inducing reprogramming where AS8351 was replaced with 10 μM PBIT. Scale bars, 100 μm. […] Em, membrane potential. Dotted lines indicate 0 mV. F/F0, fluorescence relative to the baseline.
This conclusion was further confirmed by using a KDM5B inhibitor, PBIT (Sayegh et al., 2013) (FIGS. 8C and 8D).
KDM5B catalyzes the demethylation of tri-, di-, and mono-methylation states of H3K4 and facilitates heterochromatin formation (Mosammaparast and Shi, 2010). The inventors have observed that one effect of the reprogramming compositions described herein is on re-opening closed chromatin structures.

ERK1 = ERK1 (Homo sapiens, UniProt P27361); settings: cited from earlier work
Chain of ERK1 (P27361 whole entry, species assumed): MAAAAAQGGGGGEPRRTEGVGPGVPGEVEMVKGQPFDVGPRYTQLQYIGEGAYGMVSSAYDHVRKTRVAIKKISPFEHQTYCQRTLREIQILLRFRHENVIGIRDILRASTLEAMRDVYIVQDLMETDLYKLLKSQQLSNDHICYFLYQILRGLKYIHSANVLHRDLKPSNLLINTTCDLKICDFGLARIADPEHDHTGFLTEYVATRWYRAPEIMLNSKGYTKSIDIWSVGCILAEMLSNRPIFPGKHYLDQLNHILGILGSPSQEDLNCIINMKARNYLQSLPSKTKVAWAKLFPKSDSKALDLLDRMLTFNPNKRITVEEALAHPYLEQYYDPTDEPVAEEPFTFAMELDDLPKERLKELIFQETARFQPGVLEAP

RasGAP = biological target: T1, RasGAP (Homo sapiens, UniProt P20936); settings: cited from earlier work
T1 sequence (P20936 1-1047): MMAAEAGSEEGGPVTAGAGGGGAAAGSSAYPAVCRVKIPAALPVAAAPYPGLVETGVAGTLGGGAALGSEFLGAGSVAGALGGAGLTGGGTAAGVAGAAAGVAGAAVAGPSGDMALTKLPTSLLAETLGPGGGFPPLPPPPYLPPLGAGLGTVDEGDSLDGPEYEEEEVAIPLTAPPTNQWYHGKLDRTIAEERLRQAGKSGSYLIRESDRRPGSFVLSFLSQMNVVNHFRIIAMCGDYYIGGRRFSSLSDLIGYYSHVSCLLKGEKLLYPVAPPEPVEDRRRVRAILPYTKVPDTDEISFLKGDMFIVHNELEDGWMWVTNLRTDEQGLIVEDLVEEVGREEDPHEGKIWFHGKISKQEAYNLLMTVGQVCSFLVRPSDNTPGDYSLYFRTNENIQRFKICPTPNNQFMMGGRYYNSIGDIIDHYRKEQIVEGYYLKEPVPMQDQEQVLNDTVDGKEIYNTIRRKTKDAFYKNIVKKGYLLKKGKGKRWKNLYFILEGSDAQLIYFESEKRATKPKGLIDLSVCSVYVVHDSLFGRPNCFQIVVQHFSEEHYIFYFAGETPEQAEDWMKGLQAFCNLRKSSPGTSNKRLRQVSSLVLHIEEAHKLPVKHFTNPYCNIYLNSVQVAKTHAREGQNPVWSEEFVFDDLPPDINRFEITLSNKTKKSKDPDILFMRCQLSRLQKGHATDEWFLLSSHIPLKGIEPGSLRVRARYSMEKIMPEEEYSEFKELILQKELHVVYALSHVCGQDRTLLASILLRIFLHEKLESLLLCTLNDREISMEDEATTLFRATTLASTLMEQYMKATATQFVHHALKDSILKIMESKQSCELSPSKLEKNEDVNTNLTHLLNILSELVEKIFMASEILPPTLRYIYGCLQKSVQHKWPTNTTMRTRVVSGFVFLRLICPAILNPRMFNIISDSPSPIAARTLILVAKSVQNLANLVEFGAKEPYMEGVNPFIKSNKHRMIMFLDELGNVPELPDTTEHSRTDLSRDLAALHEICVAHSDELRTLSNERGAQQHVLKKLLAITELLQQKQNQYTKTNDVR

SAPK2/p38 = SAPK2/p38 (Homo sapiens, UniProt Q16539); settings: CK1 and ALK5 inhibitor vs SAPK2/p38; cited from earlier work
Chain of SAPK2/p38 (Q16539 whole entry): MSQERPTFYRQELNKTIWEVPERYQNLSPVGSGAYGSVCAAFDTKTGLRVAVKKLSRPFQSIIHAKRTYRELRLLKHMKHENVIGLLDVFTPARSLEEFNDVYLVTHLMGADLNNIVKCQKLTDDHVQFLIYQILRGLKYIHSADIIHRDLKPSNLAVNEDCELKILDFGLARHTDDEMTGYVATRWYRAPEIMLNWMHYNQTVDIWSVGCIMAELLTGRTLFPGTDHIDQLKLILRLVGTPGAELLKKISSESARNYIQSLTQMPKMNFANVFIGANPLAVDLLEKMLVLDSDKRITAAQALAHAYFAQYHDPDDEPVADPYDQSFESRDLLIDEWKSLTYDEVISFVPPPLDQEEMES

[7] = 7-day pretreatment before reprogramming

## COc1cc2ncc(-c3ccccc3)nc2cc1OC [AG-1296, 6,7-Dimethoxy-3-phenylquinoxaline]
[1]
  IC50: 1 µM

## CC(C)(C)c1cc(C=C(C#N)C#N)cc(C(C)(C)C)c1O [Tyrphostin 9]
[1]
  IC50: 1.2 µM

## CCCC(=O)[O-].[Na+] [sodium butyrate (NaB), sodium butyrate]
[2]; pretreatment in combination with SMER28
  induction efficiency of HADFs: further increased the induction efficiency of HADFs

## CC(C)NCC(O)c1ccc(O)c(O)c1 (centres unmarked) [isoproterenol]
[3]
  effect on beating frequency: significantly increased

## N#CC(C#N)=Cc1ccc(O)c(O)c1 [AG18, [(3,4-Dihydroxyphenyl)methylene]-propenedinitrile]
[1]
  IC50: 25 µM

## N#CC(=Cc1ccc2[nH]ccc2c1)C(N)=C(C#N)C#N [AG-370, 2-Amino-4-(1H-indol-5-yl)-1,1,3-tricyanobuta-1,3-diene]
[1]
  IC50: 20 µM
[4]
  IC50: 820 µM

## Cc1[nH]c(C=C2C(=O)Nc3ccccc32)c(C)c1CCC(=O)O [SU 6668]
[5]
  IC50: 0.06 µM

## Cc1ccc(-n2sc3ccccc3c2=O)cc1 [PBIT, 2-(4-methylphenyl)-1,2-benzisothiazol-3(2H)-one]
[6]; 10 μM PBIT as a substitute for AS8351
  electrophysiological features: exhibited CM-like electrophysiological features
[6]; 10 μM PBIT as a substitute for AS8351, day 30
  expression of cardiac proteins: expressed a broad panel of cardiac proteins

## Cc1cc(Nc2ncc3c(n2)N(C)C(=O)N(c2cc(NC(=O)c4cccc(C(F)(F)F)c4)ccc2C)C3)n(C)n1 [SC1, N-(3-(7-(1,3-dimethyl-1H-pyrazol-5-ylamino)-1-methyl-2-oxo-1,2-dihydropyrimido[4,5-d]pyrimidin-3(4H)-yl)-4-methylphenyl)-3-(trifluoromethyl)benzamide]
ERK1
  Kd: 0.212 µM
RasGAP
  Kd: 0.098 µM

## NC(=O)c1ccc(-c2nc(-c3ccc4c(c3)OCCO4)c(-c3ccccn3)[nH]2)cc1 [D 4476, 4-[4-(2,3-Dihydro-1,4-benzodioxin-6-yl)-5-(2-pyridinyl)-1H-imidazol-2-yl]benzamide]
SAPK2/p38
  selectivity over SAPK2/p38: greater than 20 fold

## C[N+](C)(C)CCOC(N)=O [Cch, carbachol]
[3]
  effect on beating frequency: opposite, negative effect

## C=CCNc1ncnc2ccc(Br)cc12 [SMER28]
[2]; [7]
  generation of beating cardiac clusters from HADFs: enabled the generation of beating cardiac clusters
  proliferation of HADFs: increased the proliferation of HADFs

## N#C/C(=C\c1ccc(O)c(O)c1)C(N)=O [Tyrphostin 46]
[1]
  IC50: 50 µM
